According to BindingDB's records for doi:10.1021/jm801176e (Nci-Frederick, 2009):

Key:
[1] = Inhibition of HIV1 wild type reverse transcriptase-mediated viral DNA synthesis in human HOS-313 cells expressing HSV thymidine kinase assessed as luciferase activity treated 3 hrs before infection measured after 48 hrs by luminescence assay
[2] = Inhibition of HIV1 wild type reverse transcriptase-mediated viral DNA synthesis in human HOS cells assessed as luciferase activity treated 3 hrs before infection measured after 48 hrs by luminescence assay
[3] = Inhibition of HIV1 reverse transcriptase M184V mutant-mediated viral DNA synthesis in human HOS cells assessed as luciferase activity treated 3 hrs before infection measured after 48 hrs by luminescence assay
[4] = Inhibition of HIV1 reverse transcriptase M184V mutant-mediated viral DNA synthesis in human HOS-313 cells expressing HSV thymidine kinase assessed as luciferase activity treated 3 hrs before infection measured after 48 hrs by luminescence assay

SMILES | IC50 [1] [nM] | IC50 [2] [nM] | IC50 [3] [nM] | IC50 [4] [nM]
Cc1cccc2c1OP(=O)(OC[C@H]1C[C@@H](n3cc(C)c(=O)[nH]c3=O)C[C@@H]1O)OC2 (stereo not given in full) | 120 | 380 |  | 
Cc1cn([C@@H]2C[C@H](CO)[C@@H](O)C2)c(=O)[nH]c1=O |  | 3200 | 1800 | 190
